# According to ChEMBL document CHEMBL5665443, “Enzyme Inhibitor Single Concentration assay results for EUbOPEN Chemogenomics Library” (2024):
# Key:
# [1] = target: Methyl-CpG-binding domain protein 4 (Homo sapiens) (UniProt O95243); conditions: Compound Concentration 10.0 uM, Hit No;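 further: MBD4 activity read as fluorescence at 594 nm from cleavage and release of a quenched duplex DNA oligonucleotide, with APE1 coupled to incise the strand and raise turnover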
# Description: Inhibition of MBD4 by quantifying inhibition of MBD4-mediated cleavage and dissociation of quenched duplex DNA oligonucleotides, measured as fluorescence at 594 nm. To generate a functional strand incision and increase turn-over this assay is coupled to APE1.
# [2] = target: DNA-3-methyladenine glycosylase (Homo sapiens) (UniProt P29372); conditions: Compound Concentration 10.0 uM, Hit No;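 further: enzyme assay where MPG cuts a quenched duplex DNA oligonucleotide probe, paired with APE1 for strand incision and turnover, read as fluorescence at 594 nm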
# Description: Inhibition of MPG by quantifying inhibition of MPG-mediated cleavage and dissociation of quenched duplex DNA oligonucleotides, measured as fluorescence at 594 nm. To generate a functional strand incision and increase turn-over this assay is coupled to APE1.
# [3] = target: T1, Adenine DNA glycosylase (Homo sapiens) (UniProt Q9UIF7); conditions: Compound Concentration 10.0 uM, Hit No;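 further: human MUTYH activity read as 594 nm fluorescence from cleavage and release of a quenched DNA duplex, coupled with APE1 for strand incision, lower signal meaning inhibition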
# T1 sequence (whole entry): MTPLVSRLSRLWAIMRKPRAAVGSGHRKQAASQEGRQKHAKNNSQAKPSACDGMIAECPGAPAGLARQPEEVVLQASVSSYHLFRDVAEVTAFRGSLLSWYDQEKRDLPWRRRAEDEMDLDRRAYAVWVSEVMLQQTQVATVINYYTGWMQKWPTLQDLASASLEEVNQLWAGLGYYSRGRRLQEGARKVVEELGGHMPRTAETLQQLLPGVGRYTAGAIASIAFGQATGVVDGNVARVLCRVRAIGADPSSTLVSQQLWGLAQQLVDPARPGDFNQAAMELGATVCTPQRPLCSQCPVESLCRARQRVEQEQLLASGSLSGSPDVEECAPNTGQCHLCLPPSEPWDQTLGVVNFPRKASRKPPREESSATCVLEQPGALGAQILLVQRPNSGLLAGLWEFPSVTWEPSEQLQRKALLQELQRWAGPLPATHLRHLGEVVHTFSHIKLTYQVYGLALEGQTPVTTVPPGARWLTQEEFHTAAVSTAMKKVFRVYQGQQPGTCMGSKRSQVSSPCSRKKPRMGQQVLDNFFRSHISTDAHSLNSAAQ
# Description: Inhibition of MUTYH by quantifying inhibition of MUTYH-mediated cleavage and dissociation of quenched duplex DNA oligonucleotides, measured as fluorescence at 594 nm. To generate a functional strand incision and increase turn-over this assay is coupled to APE1.
# [4] = target: Endonuclease 8-like 1 (Homo sapiens) (UniProt Q96FI4); conditions: Compound Concentration 10.0 uM, Hit No;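 further: fluorescence at 594 nm from quenched duplex DNA oligonucleotides released by NEIL1 cleavage and strand separation, reported as reduction of this enzyme activity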
# Description: Inhibition of NEIL1 by quantifying inhibition of NEIL1-mediated cleavage and dissociation of quenched duplex DNA oligonucleotides, measured as fluorescence at 594 nm.
# [5] = target: T2, Endonuclease 8-like 2 (Homo sapiens) (UniProt Q969S2); conditions: Compound Concentration 10.0 uM, Hit No;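 further: fluorescence at 594 nm reports NEIL2 cutting and release of a quenched double-stranded DNA oligo substrate, reduced signal read as inhibition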
# T2 sequence (whole entry): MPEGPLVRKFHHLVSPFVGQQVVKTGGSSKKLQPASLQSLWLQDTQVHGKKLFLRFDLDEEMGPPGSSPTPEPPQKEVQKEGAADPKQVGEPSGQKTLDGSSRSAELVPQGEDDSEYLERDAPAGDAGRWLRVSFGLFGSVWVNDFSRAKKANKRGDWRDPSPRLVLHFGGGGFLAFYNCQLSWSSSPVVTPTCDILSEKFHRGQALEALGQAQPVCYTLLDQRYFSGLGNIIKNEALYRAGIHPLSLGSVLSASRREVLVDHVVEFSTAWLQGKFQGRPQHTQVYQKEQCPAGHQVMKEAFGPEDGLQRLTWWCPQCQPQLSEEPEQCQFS
# Description: Inhibition of NEIL2 by quantifying inhibition of NEIL2-mediated cleavage and dissociation of quenched duplex DNA oligonucleotides, measured as fluorescence at 594 nm.
# [6] = target: T3, Endonuclease III-like protein 1 (Homo sapiens) (UniProt P78549); conditions: Compound Concentration 10.0 uM;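 further: enzyme assay tracking NTHL1 cutting and release of a quenched double-stranded DNA oligo substrate, read as fluorescence at 594 nm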
# T3 sequence (whole entry): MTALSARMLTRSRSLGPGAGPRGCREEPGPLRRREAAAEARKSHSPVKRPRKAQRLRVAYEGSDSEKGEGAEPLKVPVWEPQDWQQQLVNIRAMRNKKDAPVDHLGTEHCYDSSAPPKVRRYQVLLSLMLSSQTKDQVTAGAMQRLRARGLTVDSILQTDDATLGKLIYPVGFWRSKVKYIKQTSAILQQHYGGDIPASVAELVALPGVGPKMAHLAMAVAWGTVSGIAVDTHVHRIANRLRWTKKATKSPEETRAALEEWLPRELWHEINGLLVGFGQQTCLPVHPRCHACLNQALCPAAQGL
# Description: Inhibition of NTHL1 by quantifying inhibition of NTHL1-mediated cleavage and dissociation of quenched duplex DNA oligonucleotides, measured as fluorescence at 594 nm.
# [7] = target: N-glycosylase/DNA lyase (Homo sapiens) (UniProt O15527); conditions: Compound Concentration 10.0 uM, Hit No;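 further: OGG1 cleavage of a quenched duplex DNA oligonucleotide, coupled to APE1 for strand incision, read as fluorescence at 594 nm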
# Description: Inhibition of OGG1 by quantifying inhibition of OGG1-mediated cleavage and dissociation of quenched duplex DNA oligonucleotides, measured as fluorescence at 594 nm. To generate a functional strand incision and increase turn-over this assay is coupled to APE1.
# [8] = target: T4, Single-strand selective monofunctional uracil DNA glycosylase (Homo sapiens) (UniProt Q53HV7); conditions: Compound Concentration 10.0 uM, Hit No;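 further: enzymatic SMUG1 assay coupled with APE1, reading fluorescence at 594 nm released when a quenched double-stranded DNA oligonucleotide substrate is cleaved and separated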
# T4 sequence (whole entry): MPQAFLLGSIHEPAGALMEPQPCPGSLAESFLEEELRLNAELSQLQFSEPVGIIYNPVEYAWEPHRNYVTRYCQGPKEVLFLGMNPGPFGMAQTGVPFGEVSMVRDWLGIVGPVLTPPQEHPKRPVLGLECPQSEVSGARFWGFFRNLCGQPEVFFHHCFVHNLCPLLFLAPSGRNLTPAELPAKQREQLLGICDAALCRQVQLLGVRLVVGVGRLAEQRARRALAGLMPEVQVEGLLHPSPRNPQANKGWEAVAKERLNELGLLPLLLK
# Description: Inhibition of SMUG1 by quantifying inhibition of SMUG1-mediated cleavage and dissociation of quenched duplex DNA oligonucleotides, measured as fluorescence at 594 nm. To generate a functional strand incision and increase turn-over this assay is coupled to APE1.
# [9] = target: G/T mismatch-specific thymine DNA glycosylase (Homo sapiens) (UniProt Q13569); conditions: Compound Concentration 10.0 uM, Hit No;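 further: human TDG cleavage of quenched duplex DNA oligonucleotides coupled to APE1, strand release read as fluorescence at 594 nm, inhibition of TDG activity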
# Description: Inhibition of TDG by quantifying inhibition of TDG-mediated cleavage and dissociation of quenched duplex DNA oligonucleotides, measured as fluorescence at 594 nm. To generate a functional strand incision and increase turn-over this assay is coupled to APE1.
# [10] = target: Uracil-DNA glycosylase (Homo sapiens) (UniProt P13051); conditions: Compound Concentration 10.0 uM, Hit No;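 further: UNG excision on a quenched double-stranded DNA oligo probe, with APE1 added for strand incision and turnover, read as fluorescence at 594 nm as strands separate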
# Uracil-DNA glycosylase (Homo sapiens), sequence (P13051 whole entry): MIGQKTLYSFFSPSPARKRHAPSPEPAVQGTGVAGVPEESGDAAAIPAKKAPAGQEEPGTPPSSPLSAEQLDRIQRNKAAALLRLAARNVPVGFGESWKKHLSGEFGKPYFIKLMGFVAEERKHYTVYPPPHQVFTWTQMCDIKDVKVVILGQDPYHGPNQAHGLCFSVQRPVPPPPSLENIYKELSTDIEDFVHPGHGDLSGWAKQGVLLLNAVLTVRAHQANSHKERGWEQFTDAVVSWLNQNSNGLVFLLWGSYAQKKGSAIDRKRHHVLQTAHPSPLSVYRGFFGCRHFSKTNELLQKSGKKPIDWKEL
# Description: Inhibition of UNG by quantifying inhibition of UNG-mediated cleavage and dissociation of quenched duplex DNA oligonucleotides, measured as fluorescence at 594 nm. To generate a functional strand incision and increase turn-over this assay is coupled to APE1.
# N-glycosylase/DNA lyase (Homo sapiens), sequence (O15527 whole entry): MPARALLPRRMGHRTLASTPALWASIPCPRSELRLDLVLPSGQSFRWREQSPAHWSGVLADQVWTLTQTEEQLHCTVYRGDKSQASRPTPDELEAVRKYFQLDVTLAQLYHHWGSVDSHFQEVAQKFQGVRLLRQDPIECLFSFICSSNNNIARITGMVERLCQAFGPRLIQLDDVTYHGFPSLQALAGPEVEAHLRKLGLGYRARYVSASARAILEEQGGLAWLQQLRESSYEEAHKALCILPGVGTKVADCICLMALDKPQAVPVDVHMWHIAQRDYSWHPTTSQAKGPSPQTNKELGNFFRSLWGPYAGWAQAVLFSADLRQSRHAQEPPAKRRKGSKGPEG
# DNA-3-methyladenine glycosylase (Homo sapiens), sequence (P29372 whole entry): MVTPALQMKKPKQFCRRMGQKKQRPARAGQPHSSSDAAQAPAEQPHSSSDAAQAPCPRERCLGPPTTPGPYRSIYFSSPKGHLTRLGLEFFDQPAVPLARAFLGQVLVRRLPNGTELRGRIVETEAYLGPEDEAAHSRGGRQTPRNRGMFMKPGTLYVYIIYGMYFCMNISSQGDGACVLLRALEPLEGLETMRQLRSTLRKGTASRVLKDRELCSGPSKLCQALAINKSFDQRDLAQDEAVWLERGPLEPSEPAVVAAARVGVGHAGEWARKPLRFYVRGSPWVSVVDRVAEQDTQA
# Methyl-CpG-binding domain protein 4 (Homo sapiens), sequence (O95243 whole entry, the tested form may be a part): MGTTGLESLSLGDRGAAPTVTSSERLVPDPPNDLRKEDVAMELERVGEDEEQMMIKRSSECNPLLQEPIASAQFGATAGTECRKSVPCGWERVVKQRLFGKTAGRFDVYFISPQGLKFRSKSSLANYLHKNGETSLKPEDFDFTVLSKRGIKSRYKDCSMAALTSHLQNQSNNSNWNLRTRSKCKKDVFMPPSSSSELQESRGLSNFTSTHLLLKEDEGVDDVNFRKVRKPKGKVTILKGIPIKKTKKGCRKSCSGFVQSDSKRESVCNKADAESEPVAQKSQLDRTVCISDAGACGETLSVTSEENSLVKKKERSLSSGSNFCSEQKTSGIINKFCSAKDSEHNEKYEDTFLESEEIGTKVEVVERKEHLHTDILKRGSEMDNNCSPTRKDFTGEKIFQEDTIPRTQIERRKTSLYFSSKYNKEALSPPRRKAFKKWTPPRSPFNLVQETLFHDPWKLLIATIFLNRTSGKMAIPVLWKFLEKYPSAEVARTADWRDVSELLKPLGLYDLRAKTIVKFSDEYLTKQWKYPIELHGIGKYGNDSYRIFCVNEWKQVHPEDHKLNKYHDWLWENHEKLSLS
# G/T mismatch-specific thymine DNA glycosylase (Homo sapiens), sequence (Q13569 whole entry): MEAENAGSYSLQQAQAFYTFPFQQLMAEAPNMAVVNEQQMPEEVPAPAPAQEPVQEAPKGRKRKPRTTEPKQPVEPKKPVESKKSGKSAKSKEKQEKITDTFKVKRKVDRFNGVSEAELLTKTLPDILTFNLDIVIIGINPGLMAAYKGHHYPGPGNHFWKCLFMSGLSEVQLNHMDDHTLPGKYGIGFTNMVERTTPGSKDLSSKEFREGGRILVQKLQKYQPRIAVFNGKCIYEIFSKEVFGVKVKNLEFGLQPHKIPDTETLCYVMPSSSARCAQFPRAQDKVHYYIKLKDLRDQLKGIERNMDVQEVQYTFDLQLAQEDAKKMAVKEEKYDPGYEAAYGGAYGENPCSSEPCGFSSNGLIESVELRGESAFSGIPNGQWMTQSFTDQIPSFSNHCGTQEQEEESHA
# Endonuclease 8-like 1 (Homo sapiens), sequence (Q96FI4 whole entry): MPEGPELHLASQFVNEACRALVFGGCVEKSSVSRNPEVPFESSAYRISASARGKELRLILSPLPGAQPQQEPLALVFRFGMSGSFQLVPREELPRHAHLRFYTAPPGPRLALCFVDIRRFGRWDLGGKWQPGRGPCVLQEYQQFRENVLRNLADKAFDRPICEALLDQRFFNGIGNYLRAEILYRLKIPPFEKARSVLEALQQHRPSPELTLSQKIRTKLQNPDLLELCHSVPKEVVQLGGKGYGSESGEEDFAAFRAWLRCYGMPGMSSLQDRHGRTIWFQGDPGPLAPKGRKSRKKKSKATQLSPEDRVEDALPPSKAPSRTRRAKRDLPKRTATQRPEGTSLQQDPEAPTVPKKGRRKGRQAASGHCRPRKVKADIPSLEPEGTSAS
Compound,inhibition [1],inhibition [2],inhibition [3],inhibition [4],inhibition [5],inhibition ([6]; Hit No),inhibition [7],inhibition [8],inhibition [9],inhibition [10],inhibition ([6]; Hit Yes)
C[C@]1(C(=O)N(CCCC(=O)O)Cc2cccc(Cl)c2)CCN1C(=O)c1csc2ccccc12,-2.17%,-1.32%,11.5%,3.5%,-3.73%,-9.8%,3.32%,7.04%,25.5%,-7.61%,–
FC(F)(F)c1ccc(Nc2ncnc3cc(-c4ncccc4C(F)(F)F)ccc23)cc1,18.4%,12.8%,26.4%,11.7%,2.71%,-4.39%,5.12%,19.7%,25%,1.01%,–
CCCOc1ccc2[nH]cc(C3=CCNCC3)c2n1,-0.485%,-2.25%,0.205%,0.306%,-8.25%,7.17%,-9.55%,-1.82%,11.1%,-5.52%,–
NCCc1c[nH]cn1,10.4%,-7.46%,10.5%,-0.352%,-0.234%,15.1%,0.419%,-0.0333%,7.61%,-7.79%,–
CCOC(=O)N1CCC(c2cc(O)n3nc(C)c(-c4ccc(F)cc4)c3n2)CC1,40.6%,38.1%,75.7%,5.34%,2.71%,11.3%,-3.67%,6.03%,48.9%,-0.428%,–
CC(C)c1cc(Br)c(NC(=O)Nc2cccnc2)c(Br)c1,12.5%,14.7%,0.0238%,3.27%,7.55%,-2.73%,-2.73%,-3.86%,19.7%,-2.82%,–
Cc1ccc(C(C)(O)c2nc3ccccc3s2)c(C)c1 (stereo not given),0.731%,10.5%,0.661%,7.8%,11%,8.52%,2.68%,9.99%,14.6%,-8.45%,–
CCn1cnc2c(-c3ccc(F)c(-c4ccc(S(=O)(=O)CC)cc4OC)c3)cnnc21,19.2%,7.34%,16.3%,6.83%,12.9%,13.8%,-5.04%,1.23%,22.3%,6.05%,–
CC(=O)[C@H]1CC[C@H]2[C@@H]3CC[C@H]4C[C@H](O)CC[C@]4(C)[C@H]3CC[C@]12C,25.8%,31.5%,1.4%,9.05%,5.51%,–,7.89%,13.9%,19.2%,-1.14%,46%
COc1cc(Br)c(S(=O)(=O)Nc2ccc(C(F)(F)F)c(O[C@@H]3CCN(C)C3)c2)cc1OC,-1.76%,-9.93%,-3.82%,-6.66%,-4.68%,13.8%,-7.69%,-0.0706%,-0.305%,-6.21%,–
